Assay results taken from article PMC2901058 (The Journal of Experimental Medicine, 2010).

System: JurkatCD8-TK3^WT, JurkatCD8-TK3^Gln55His, and JurkatCD8-TK3^Gln55Ala cell lines
Assay: CD69 up-regulation by peptide on C1R-HLA-B*3501 APCs, JurkatCD8-TK3 lines
Type: cell-based, human
Details: dose–response, peptide presented on C1R–HLA-B*3501; not depicted

HPVGEADYFEY
CD69 up-regulation, comparison between cell lines: no significant differences in CD69 up-regulation
